Patent US20250222028A1, “ENGINEERED IMMUNE CELL PLATFORM” (Cancer Research Technology Limited, priority 2022, published 2025)

Key:
K562 target cells = assay: LDH killing assay, NK-92 cells with K562 target cells; type: cell-based, human; conditions: 10 μM, vs carrier control
Method: FIG. 5. L-type Cav channel agonists increase GLI1 expression in the human NK cell line NK-92 and promote specific tumour cell killing. (A) NK-92 cells were stimulated using an anti-NKp46 mAb for 4 hours in the presence of 10 μM FPL 64176, and GLI1 expression was assessed using qRT-PCR. Data is n=4 independent experiments. (B) NK-92 cells were stimulated using an anti-NKp46 mAb for 4 hours in the presence of 100 μM Bay K8644, and GLI1 expression was assessed using qRT-PCR. Data is n=3 independent experiments. […]
FIG. 7. […] Killing of K562 tumour cells was assessed after 24 h by LDH killing assay. […]
In order to establish whether an increase in GLI1 expression is correlated with an increase in NK-92 cell effector function, NK-92 were co-cultured with K562 myelogenous leukaemia cells in the presence of 10 μM FPL 64176 or carrier control, at the effector:target ratios indicated in FIG. 5C. Cell killing was assessed using the LDH assay, as previously described.
To determine if the increased specific cell killing seen in Gorlin patients can be achieved by engineering cells to express a gain-of-function mutation resulting in increased Gli1 signalling, NK-92 cells were engineered to stably express the I756T GOF mutation in Cav1.4. […] Killing of K562 tumour cells was assessed after 24 h by LDH killing assay. […]

P815 target cells = assay: VITAL cytotoxicity assay, human CD8+ CTLs with P815 target cells; type: cell-based; conditions: 10 μM, pre-incubation 40-50 mins, vs carrier control
Method: FIG. 3. L-type Cav channel agonists increase expression of GLI1 and enhance specific cell killing by human CD8+ CTLs. Naïve human CD8+ T cells were purified from the buffy coat layer of blood isolated from healthy donors, and were stimulated using ImmunoCult™ CD3/CD28/CD2 human T-Cell Activator and again restimulated at day 10 for 3 days. (A) Human CTLs were restimulated on day 15-20 for 24 h with plate-bound anti-CD3 in the presence of 10 μM of FPL64176 or carrier control before RNA was extracted for qRT-PCR analysis. n=1 healthy donor. TBP is used as a reference gene. (B) Updated graph of (A) showing n=3 independent experiments/healthy donors. Gli1 expression is normalised to carrier. (C) Between day 16 and 24, CD8+ T cells were co-cultured with P815 target cells at indicated effector to target ratios and subjected to a VITAL cytotoxicity assay in the presence of 10 μM FPL64176 (squares) or carrier control (circles). (D) Same data as (C) represented differently. […] Error bars indicate SD. p values were calculated using an unpaired two-tailed Student's t test (B) or a two-way ANOVA (C/D). * indicates p<0.05, ** indicates p<0.01, **** indicates p<0.0001.
A VITAL assay was subsequently performed to assess the role of L-type Cav agonists with regards to specific tumour cell killing by human CD8+ CTLs. […]

[1] = system: L-type voltage gated Ca^2+ channel; assay: Calcium flux after TCR crosslinking in murine CD8+ CTLs; type: cell-based
Text: FIG. 14. […] Murine CD8^+ CTLs were loaded with Calcium Sensor Dye eFluor™ 514, anti-CD3ε antibodies and calcium channel inhibitors/agonist. Other Calcium channels expressed in CD8 T cells were inhibited: “Block”=BTP2 inhibits CRAC channels downstream of the TCR, and BCTC inhibits TRPV channels. […] T cell receptor (TCR) crosslinking was induced 30 s after the start of sample acquisition by adding antibodies to crosslink the TCR. Arrows indicate the initiation of the calcium flux following TCR crosslinking. The line indicates the baseline fluorescence of the Calcium Sensor Dye eFluor™ 514. Data shown is representative of two independent experiments.

MC38-Ova tumour = assay: Adoptive transfer of agonist-treated OTI T cells into MC38-Ova tumour bearing Rag2 KO mice, Cleaved Caspase 3 immunohistochemistry; type: in vivo; conditions: T cells re-stimulated in vitro with agonist before transfer; tumours excised 24 hours after transfer
Method: FIG. 13. […] Cytotoxic OTI T cells were re-stimulated in vitro in the presence of FPL 64176 or carrier control before adoptive transfer into MC38-Ova tumour bearing Rag2 KO mice via tail vein injection. 24 hours after the adoptive transfer, tumours were excised and analysed by immunohistochemistry for Cleaved Caspase 3 (A). 3 mice per condition, % CC3 over whole tumour area from all mice. (B) Repeat experiment with 3-4 mice per condition. Each data point represents the average CC3 staining of 3 separate tumour sections. Overall CC3 staining (top panel) and weak, moderate, and strong CC3 staining (bottom row), respectively, are shown.
As described above, the present invention may find use in adoptive transfer. To investigate the applicability of Cav channel agonist treatment in an adoptive transfer treatment regime, cytotoxic OTI T cells were re-stimulated in vitro in the presence of FPL 64176 or carrier control before adoptive transfer into MC38-Ova tumour bearing Rag2 KO mice via tail vein injection. 24 hours after the adoptive transfer, tumours were excised and analysed by immunohistochemistry for Cleaved Caspase 3. FIGS. 13A&B indicate that treatment of tumour-specific T cells with a Cav channel agonist prior to adoptive transfer leads to increased tumour cell killing compared to adoptive transfer with T cells that have not been treated with a Cav channel agonist.

## COC(=O)c1c(C)[nH]c(C)c1C(=O)c1ccccc1Cc1ccccc1 [FPL 64176]
K562 target cells
  target cell killing by NK-92 cells: enhanced
P815 target cells
  improvement of cell killing: ~70%
[1]
  initiation of Ca^2+ flux following TCR crosslinking: accelerates
[1]; CRAC and TRPV channels blocked with BTP2 and BCTC
  Cav-mediated Ca^2+ flux: specifically increases
MC38-Ova tumour
  tumour cell death in vivo (Cleaved Caspase 3 staining): increased tumour cell death
